From patent US20240229043A1, “Methods and Compositions for Treating, Ameliorating, and/or Preventing Chronic Kidney Disease (CKD) and Complications thereof by Regulating DPEP1, CASP9, ACSS2 and/or FASN” (THE TRUSTEES OF THE UNIVERSITY OF PENNSYLVANIA, priority 2022, published 2024) come the findings set out here.

The structures appear in SMILES notation. Peptide text beside a SMILES is read from it. * marks the point of attachment. Cbz = O=C(OCc1ccccc1)*; CH2F = FC*

The subject of data set [1] is Rat epithelial cells (NRK-52E). Nature of the data set: Cisplatin-induced LDH release in siControl and siChmp1a transfected cells pretreated with cell death inhibitors. The class given is cell-based. As to conditions: siControl and siChmp1a cells pretreated with inhibitor 18 h, then 20 μM cisplatin 24 h. The protocol: Rat epithelial cells (NRK-52E; ATCC (CRL-1571)) were cultured in DMEM with 5% fetal bovine serum (FBS). Dpep1 and Chmp1a siRNA were purchased from Dharmacon. Dpep1-overexpressing vector pCMV6-Entry was purchased from OriGene Technologies, Inc. Transfection of gene-targeting siRNA, negative control siRNA, and overexpressing plasmid were performed using Lipofectamine 3000.
For transfection, cells were seeded in six-well plates, grown overnight until 60-70% confluency, and then transfected with 50 nM (final concentration) siRNA or 5 μg Dpep1-overexpression plasmids. Transfection efficiency was determined under a fluorescence microscope by the presence of Cy3 transfection control. […] After 24 h of Dpep1 siRNA transfection, cells were treated with cell death inducers for 18-20 h, respectively: 5 μM Nigericin (Sigma #N7143); 5 μM CPT (Cayman #11694); 5 μM erastin (Cayman #17754), 20 μM FIN56 (Cayman #25180), 5 μM FINO2 (Cayman #25096) and 5 μM RSL3 (Cayman #19288).
(§1) Mouse primary tubular epithelial cells from wild-type, mutant mice or NRK52E cells were plated in 96-well plate. Transfection of NRK52E cells with siRNA was carried out as described above. […] Cells were harvested and stained with trypan blue (Thermo Fisher #T10282) to visualize dead cells. Cell counts were analyzed in Countess Auto Counter (Invitrogen, C10227). LDH release was quantified using CytoTox 96 Non-Radioactive Cytotoxicity Assay (Promega #G1780). Medium was collected in triplicates, spun down, and incubated in a 96-well plate with the CytoTox reagent for 20-30 min. After adding the stop solution, the absorbance signal was measured at 490 nm in a plate reader. The ratio between dead cell and live cell was calculated through the measurement using MultiTox-Fluor Multiplex Cytotoxicity Assay (Promega #9201). Cells were incubated in assay buffer containing live cell substrate GF-AFC and dead cell substrate bis-AAF-R110 for 30 min at 37° C. The plate fluorescence was measured using a plate reader as following: viability: excitation ˜400 nm; emission ˜505 nm. cytotoxicity: excitation ˜485 nm; emission ˜520 nm.

The subject of a further data set is primary TECs. Nature of the data set: Cisplatin-treated primary kidney tubule cells from wild-type and Chmp1a+/- mice. The class given is cell-based. The protocol: For primary culture of renal tubule cells, kidneys were collected from 2- to 4-week-old male mice. Cells were isolated by 2 mg/ml collagenase I (Gibco #17018-029) digestion for 30 min at 37° C. with gentle stirring and filtered through a 100-μm mesh. The cell suspension was cultured in RPMI 1640 (Corning #10-040-CM) supplement with 10% FBS (Atlanta Biologicals #S11950), 20 ng/ml EGF (Peprotech #AF-100-15), 1×ITS (Gibco #51500-056), and 1% penicillin-streptomycin (Corning #30-002-CI) at 5% CO2 and 37° C.
Primary cultured renal tubule cells or NRK52E cells were incubated with 1 μM transferrin (Thermo Fisher #T13342) for 4 h, or 5 μM mitoSOX (ThermoFisher #M36008) for 10 min, or 2 μM BODIPY™ 581/591 C11 (Thermo Fisher #D3861) for 0.5 h, or 20 ng/ml dextran conjugated to 488 (Thermo Fisher #D22910) for 2 h, at 5% CO2 and 37° C., respectively. After washing with PBS, cells were imaged directly under the confocal or regular fluorescence microscope.
as §1

The test system of another data set is ferroptosis. Nature of the data set: Cisplatin-induced injury in Chmp1a+/- mice injected with liproxstatin. The class given is in vivo. Conditions: for protection from cisplatin-induced injury / kidney disease: Chmp1a+/- (heterozygous) mice. The protocol: Eight- to ten-week-old male mice were used in this study. All mice were maintained under SPF conditions with ambient temperature 20-22, humidity 50-70%, and a 12/12 h light/dark cycle. All animal experiments were reviewed and approved and were performed in accordance with the institutional guidelines. Dpep1 mutant mice were generated by co-injection of Cas9 mRNA (100 ng/μl; ThermoFisher, A29378), sgRNA (50 ng/μl) in CRISPR Cas9 Mouse Targeting Core of University of Pennsylvania. Two sgRNAs were generated with Guide-it™ sgRNA In Vitro Transcription Kit (Takara #632635). Chmp1a mutant mice were imported from Mutant Mouse Regional Resource Center of UC Davis (#031089-UCD). For FA-induced nephropathy mouse models, 8-week-old male wild-type and Dpep1^+/− or Chmp1a^+/− mice were injected with FA (250 or 200 mg/kg, dissolved in 300 mM sodium bicarbonate) intraperitoneally and euthanized on day 7. […] Mice were euthanized on day 3. For the UUO model, mice underwent ligation of the left ureter and were euthanized on day 7, and sham-operated mice were used as controls.
Serum creatinine was measured by Creatinine Enzymatic and Creatinine Standard (DIAZYME #DZ072B-KY1). Serum BUN was measured by Infinity™ Urea Liquid Stable Reagent (Pointe Scientific #B7552150). Both measurements were performed according to the manufacturers' instructions.
RNA was isolated from mouse kidneys or cultured cells using Trizol reagent (Invitrogen) and was reverse transcribed into cDNA using cDNA Archival Kit (Life Technologies). Real-time RT-PCR was performed using SYBR Green Master Mix (Applied Biosystems).

Another data set addresses T1, CASP9 (Mus musculus, UniProt Q8C3Q9).
T1 construct: from tissue; host or cells: living mice; read-outs in serum and kidney
The data set is described as follows: Cisplatin model of kidney injury, mice treated with CASP9 inhibitor. The class given is in vivo. The protocol:
Casp9 HZ mice were obtained. Mice were injected intraperitoneally with FA (#10752485 ACROS Organics, 250 mg/kg, dissolved in […] sodium bicarbonate) or sodium bicarbonate (#56014, Sigma-Aldrich) and euthanized on day 7. Mice were euthanized on day 7 after left ureteral ligation or sham surgery. […] Mice were euthanized 18 weeks after uninephrectomy and following low-dose STZ (50 mg/kg, i.p. for 5 days) (streptozotocin, Santa Cruz Biotechnology, #U-9889) or PBS injection. Aging mice were euthanized at 2 years of age. Transgenic mice (Nphs1-rtTA/TRE-APOL1-G2) were placed on a doxycycline diet to induce transgene expression and euthanized.
RNA was isolated from kidney tissue or cells using TRIzol (Invitrogen, #15596018). RNA was reverse-transcribed using the High-Capacity cDNA Reverse Transcription Kit (Applied Biosystems, #4368813), and qRT-PCR was run in the ViiA 7 System (Life Technologies) instrument using SYBR Green Master Mix (Applied Biosystems, #4367659) and gene-specific primers. For quantitative analysis, samples were normalized to glyceraldehyde-3-phosphate dehydrogenase (GAPDH) with the ΔΔCt method.
BUN was determined by a TRACE DMA Urea kit (Thermo Electron Corporation, #TR12003), according to the manufacturer's instructions. Electrolytes (Na, K, and Cl) and hemoglobin were measured with the iSTAT Portable Clinical Analyzer using i-STAT CHEM8+ cartridge (Abaxis, #10023291). Kidney tissue was stained with hematoxylin and eosin to investigate renal injury. The degree of tubulointerstitial damage was scored semiquantitatively on a 0 to 5+ scale, according to the percentage of the area affected by hydropic degeneration, hyaline casts, cytoplasmic vacuolization, loss of the brush border, and tubular lumen dilation (0=normal, 1=<10%, 2=10 to 25%, 3=26 to 50%, 4=51 to 75%, and 5=>75%). Sirius red staining was performed according to the manufacturer's protocol (Polysciences, #24901) to determine the degree of fibrosis. For each analysis, five to eight fields were randomly selected and quantified using the Fiji software. Each dot represents the mean score of a single animal.
Several small molecular inhibitors that target CASP9 have been developed with good specificity. […] Serum creatinine and BUN levels were lower, and renal expression of Havcr1 was dampened in Z-LEHD-FMK-treated mice.

Another data set deals with FASN (Mus musculus, UniProt P19096). Conditions: primary TECs; various concentrations for 48 h.
Sequence of FASN (P19096 whole entry): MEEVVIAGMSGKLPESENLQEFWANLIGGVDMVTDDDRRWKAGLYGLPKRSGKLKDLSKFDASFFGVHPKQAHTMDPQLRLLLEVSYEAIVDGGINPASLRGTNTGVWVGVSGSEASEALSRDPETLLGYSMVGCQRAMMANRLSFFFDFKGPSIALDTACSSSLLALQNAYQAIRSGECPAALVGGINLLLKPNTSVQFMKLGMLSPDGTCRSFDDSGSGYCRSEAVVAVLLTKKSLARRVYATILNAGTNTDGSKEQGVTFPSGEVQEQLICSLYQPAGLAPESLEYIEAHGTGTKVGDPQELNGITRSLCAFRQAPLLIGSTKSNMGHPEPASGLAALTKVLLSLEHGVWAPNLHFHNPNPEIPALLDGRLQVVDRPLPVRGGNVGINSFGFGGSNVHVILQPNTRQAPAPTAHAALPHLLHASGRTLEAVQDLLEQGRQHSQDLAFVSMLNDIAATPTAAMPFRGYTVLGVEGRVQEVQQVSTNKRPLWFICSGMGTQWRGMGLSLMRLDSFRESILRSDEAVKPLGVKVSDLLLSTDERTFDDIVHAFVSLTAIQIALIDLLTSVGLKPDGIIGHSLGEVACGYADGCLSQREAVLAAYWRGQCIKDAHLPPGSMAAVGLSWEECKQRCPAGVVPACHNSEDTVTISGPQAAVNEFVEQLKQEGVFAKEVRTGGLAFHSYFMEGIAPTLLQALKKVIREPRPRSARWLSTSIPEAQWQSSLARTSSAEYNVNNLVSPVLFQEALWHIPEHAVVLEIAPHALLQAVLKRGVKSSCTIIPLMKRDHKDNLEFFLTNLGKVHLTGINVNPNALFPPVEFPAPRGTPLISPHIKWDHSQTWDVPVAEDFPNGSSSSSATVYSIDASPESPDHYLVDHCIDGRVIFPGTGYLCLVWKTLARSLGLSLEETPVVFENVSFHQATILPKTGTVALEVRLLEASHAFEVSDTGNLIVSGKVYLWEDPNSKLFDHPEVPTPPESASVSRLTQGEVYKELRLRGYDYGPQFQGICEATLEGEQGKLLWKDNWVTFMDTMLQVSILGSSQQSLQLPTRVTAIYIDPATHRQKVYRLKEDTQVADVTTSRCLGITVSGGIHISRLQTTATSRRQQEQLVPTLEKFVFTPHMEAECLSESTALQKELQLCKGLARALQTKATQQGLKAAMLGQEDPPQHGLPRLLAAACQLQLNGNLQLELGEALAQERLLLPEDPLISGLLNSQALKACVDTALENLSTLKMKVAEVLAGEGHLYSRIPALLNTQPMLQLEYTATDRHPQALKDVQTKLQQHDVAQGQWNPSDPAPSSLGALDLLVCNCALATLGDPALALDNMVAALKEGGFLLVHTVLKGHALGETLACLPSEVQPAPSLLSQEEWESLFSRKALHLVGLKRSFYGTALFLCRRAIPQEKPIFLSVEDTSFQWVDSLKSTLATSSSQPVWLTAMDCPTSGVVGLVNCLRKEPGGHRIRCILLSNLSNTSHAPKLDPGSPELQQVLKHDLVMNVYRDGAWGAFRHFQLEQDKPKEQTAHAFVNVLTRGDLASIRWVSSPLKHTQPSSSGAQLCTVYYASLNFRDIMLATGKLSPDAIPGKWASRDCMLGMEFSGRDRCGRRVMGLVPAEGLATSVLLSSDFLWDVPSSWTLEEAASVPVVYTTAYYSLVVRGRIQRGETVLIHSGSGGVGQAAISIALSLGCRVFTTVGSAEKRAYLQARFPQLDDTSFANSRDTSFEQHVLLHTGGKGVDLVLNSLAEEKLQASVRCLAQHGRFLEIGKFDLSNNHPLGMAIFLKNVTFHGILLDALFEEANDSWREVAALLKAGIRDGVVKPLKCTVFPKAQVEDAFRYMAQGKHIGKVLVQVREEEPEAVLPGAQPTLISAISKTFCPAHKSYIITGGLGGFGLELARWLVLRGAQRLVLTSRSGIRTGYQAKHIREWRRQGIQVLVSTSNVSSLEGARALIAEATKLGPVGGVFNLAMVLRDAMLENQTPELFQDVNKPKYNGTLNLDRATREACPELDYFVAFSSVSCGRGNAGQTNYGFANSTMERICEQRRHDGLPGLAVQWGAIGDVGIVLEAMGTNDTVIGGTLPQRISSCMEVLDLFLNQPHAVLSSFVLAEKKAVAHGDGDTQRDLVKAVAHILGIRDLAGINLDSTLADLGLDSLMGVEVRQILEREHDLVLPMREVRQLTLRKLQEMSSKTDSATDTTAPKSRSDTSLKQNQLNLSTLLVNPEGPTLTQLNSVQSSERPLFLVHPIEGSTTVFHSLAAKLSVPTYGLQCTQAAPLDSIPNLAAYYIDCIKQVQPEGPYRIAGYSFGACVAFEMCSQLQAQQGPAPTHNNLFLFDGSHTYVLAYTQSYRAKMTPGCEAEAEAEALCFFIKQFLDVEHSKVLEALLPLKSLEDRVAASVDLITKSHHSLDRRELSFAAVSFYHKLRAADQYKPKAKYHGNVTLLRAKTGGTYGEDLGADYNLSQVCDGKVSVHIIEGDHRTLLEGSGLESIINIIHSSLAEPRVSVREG
Where [2] appears, read: cisplatin-injected mice, inhibitor daily starting 1 day before cisplatin, vs vehicle.

T1 sequence (Q8C3Q9 whole entry): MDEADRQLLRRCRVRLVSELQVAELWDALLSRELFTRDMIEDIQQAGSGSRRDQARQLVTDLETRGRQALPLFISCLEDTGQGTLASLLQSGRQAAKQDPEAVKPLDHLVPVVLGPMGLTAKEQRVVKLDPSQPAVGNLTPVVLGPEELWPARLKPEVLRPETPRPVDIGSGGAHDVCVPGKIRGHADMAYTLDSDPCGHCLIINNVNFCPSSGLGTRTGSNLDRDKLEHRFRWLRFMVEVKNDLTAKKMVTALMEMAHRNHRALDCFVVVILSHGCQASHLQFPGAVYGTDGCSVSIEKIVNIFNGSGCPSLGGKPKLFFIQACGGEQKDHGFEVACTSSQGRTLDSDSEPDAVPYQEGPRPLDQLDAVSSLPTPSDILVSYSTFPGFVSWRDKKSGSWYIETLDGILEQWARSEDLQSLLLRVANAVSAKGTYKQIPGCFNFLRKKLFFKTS
T1 sequence (O88879 whole entry partner): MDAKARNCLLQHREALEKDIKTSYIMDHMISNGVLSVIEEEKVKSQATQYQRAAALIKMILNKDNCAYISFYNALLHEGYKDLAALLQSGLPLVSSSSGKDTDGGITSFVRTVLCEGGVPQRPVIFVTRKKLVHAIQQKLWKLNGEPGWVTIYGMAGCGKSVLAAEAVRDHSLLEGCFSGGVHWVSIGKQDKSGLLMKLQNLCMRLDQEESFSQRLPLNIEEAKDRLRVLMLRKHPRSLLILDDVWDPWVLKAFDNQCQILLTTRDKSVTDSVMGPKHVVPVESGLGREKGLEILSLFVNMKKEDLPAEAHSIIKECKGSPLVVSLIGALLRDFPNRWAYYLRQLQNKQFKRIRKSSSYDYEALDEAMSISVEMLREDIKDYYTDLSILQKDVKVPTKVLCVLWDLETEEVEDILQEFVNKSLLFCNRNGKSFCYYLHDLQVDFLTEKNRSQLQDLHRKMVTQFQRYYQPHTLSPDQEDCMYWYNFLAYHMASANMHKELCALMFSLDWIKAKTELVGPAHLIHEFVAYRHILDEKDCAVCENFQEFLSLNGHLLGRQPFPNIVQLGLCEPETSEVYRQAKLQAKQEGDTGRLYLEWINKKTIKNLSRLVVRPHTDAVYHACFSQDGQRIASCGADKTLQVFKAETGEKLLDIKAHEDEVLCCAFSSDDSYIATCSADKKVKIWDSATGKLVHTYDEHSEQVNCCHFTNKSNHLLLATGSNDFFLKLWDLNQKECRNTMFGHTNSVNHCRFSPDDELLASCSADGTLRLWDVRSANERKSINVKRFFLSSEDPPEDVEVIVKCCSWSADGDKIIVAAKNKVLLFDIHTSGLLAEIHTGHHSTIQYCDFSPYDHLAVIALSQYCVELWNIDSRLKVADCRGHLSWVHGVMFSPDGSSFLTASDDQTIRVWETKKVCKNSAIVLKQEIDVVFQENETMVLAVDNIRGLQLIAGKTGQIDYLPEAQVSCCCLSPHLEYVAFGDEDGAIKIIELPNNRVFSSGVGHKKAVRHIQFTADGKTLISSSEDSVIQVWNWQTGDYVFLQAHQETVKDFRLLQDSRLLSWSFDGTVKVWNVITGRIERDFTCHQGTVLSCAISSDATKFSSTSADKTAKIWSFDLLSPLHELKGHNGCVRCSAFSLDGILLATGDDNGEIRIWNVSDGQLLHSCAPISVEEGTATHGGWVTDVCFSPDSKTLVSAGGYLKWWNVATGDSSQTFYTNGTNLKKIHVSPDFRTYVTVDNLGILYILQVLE
T1 sequence (P62897 2-105 partner limits assumed): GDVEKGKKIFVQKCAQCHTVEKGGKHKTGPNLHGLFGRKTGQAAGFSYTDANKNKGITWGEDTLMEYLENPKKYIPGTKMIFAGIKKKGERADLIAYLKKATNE

On to `CN1C(=O)C(Cc2c[nH]c3ccccc23)NC1=S` (stereo not shown) [Nec-1, necrostatin-1], for which the LDH release result in data set [1] is reported as “No change”.
For `Clc1cccc(CN=C2Nc3ccccc3NC23CCNCC3)c1` [liproxstatin1], in the data set with primary TECs (Chmp1a+/- primary TECs, compared with inhibitors of necroptosis, apoptosis, pyroptosis), the cisplatin-induced cytotoxicity result is “alleviated”. The “lipid peroxidation (C11 BODIPY 581/591) induced by cisplatin” value in the data set on primary TECs (primary TECs from wild-type or Chmp1a+/- mice) is “lower”. Further, the LDH release result in data set [1] is “reduced this effect”. Moreover, the “protection from cisplatin-induced injury / kidney disease” value with ferroptosis (listed as Liproxstatin1) is reported as “protected”. Further, the “protection from cisplatin-induced injury / kidney disease” value in the data set with ferroptosis (listed as liproxstatin) is given as “marked protection”. Further, in the data set with ferroptosis (Chmp1a+/- mice, cisplatin), the “Kidney injury marker Kim1” value is “lower” and the serum creatinine level result is listed as “reduced”.
Consider `COC(=O)CC[C@H](NC(=O)[C@H](CC(C)C)NC(=O)OCc1ccccc1)C(=O)N[C@@H](Cc1cnc[nH]1)C(=O)N[C@@H](CC(=O)OC)C(=O)CF` [Z-LEHD-FMK] (Cbz-LE(OMe)HD(OMe)-CH2F), for which the “inflammatory cytokines (Il1b, Csf2, Tnfa, and Cxcl10) and Icam1 expression” value at CASP9 (after cisplatin injury, qRT-PCR, kidney) is reported as “lower”. Also, the “kidney function and kidney damage” value on CASP9 (cisplatin-injected mice) was “improved kidney function and lessened kidney damage”. In addition, on CASP9 (setting [2]), the BUN level entry is recorded as “lower” and the serum creatinine level result is listed as “lower”. For the same compound, the “renal expression of Havcr1” value at CASP9 (cisplatin-injected mice, vs vehicle) is on record as “dampened”.
As for `COC(=O)C[C@H](NC(=O)[C@H](C)NC(=O)[C@@H](NC(=O)OCc1ccccc1)C(C)C)C(=O)CF` [Z-VAD-FMK] (Cbz-Val-Ala-Asp(OMe)-CH2F), in data set [1], the LDH release entry is on record as “No change”.
As for `COCc1[nH]c(C(F)(F)F)nc1-c1cc(C(=O)N2CC(c3ccc(C#N)cc3)C2)c(C)cc1C` [TVB-3664], the “cell death (cell viability)” value on FASN was “did not increase cell death”.
Turning to `CCO[C@@H]1OC(=O)C[C@@H]1NC(=O)[C@@H]1CCCN1C(=O)[C@@H](NC(=O)c1ccc(N)c(Cl)c1)C(C)(C)C` [Vx765], the LDH release result in data set [1] is given as “No change”.
